Measurements from US20070232615A1, “Chemical Compounds” (priority 2004, published 2007).

Key:
T-tropic HIV = conditions: patients dual tropic or with only the T-tropic form of the virus; cited from earlier work
human CXCR4 = biological target: T1, human CXCR4 (Homo sapiens, UniProt P61073); assay: Functional FLIPR assay (block of SDF-1 alpha induced [Ca2+]i change); assay type: cell-based; conditions: HEK-293 cells with human CXCR4 and Gqi5 BacMam; antagonism of SDF-1 alpha; read-out: Functional assay (pIC50) (converted)
T1 construct: expressed in transfected cells; host or cells: HEK-293 cells (stably expressing human macrophage scavenger receptor class A type 1), transduced with human CXCR4 BacMam and Gqi5 BacMam baculoviruses
Method: Human embryonic kidney (HEK-293) cells were maintained and harvested as described above. Cells were plated in 96-well, black clear bottom, poly-lysine coated plates at a concentration of 40,000 cells per well in a final volume of 100 ul containing human CXCR4 BacMam (MOI=25) and Gqi5 BacMam (MOI=12.5). The cells were incubated at 37° C., 5% CO2, 95% humidity for 24 h to allow for protein expression.
After the required incubation time the cells were washed once with 50 ul of fresh serum-free DMEM/F12 media containing probenicid. 50 ul of dye solution was then added to the cells (Calcium Plus Assay Kit Dye; Molecular Devices) was dissolved in 200 ml of the above probenicid/BSA containing media and incubated for 1 h. Cell plates were transferred to a Fluorometric Imaging Plate Reader (FLIPR). Upon addition the effect of the compounds on the change in [Ca^2+]i was examined to determine if the compounds were agonists or antagonists (ability to block SDF-1 alpha activity) at the CXCR4 receptor. IC50 values are determined and pKb values are calculated using the Leff and Dougall equation: KB=IC50/((2+([agonist]/EC50ˆb)ˆ1/b−1) Where IC50 is that defined by the antagonist concentration-response curve [agonist] is the EC80 concentration of agonist used EC50 is that defined by the agonist concentration-response curve b is the slope of the agonist concentration-response curve.

[1] = tested on: HOS (hCXCR4/hCCR5/hCD4/pHIV-LTR-luciferase) cells and HEK-293 cells expressing HIV-1 gp160 (HXB2 strain); assay: Cell/cell fusion assay (luciferase); assay type: cell-based; conditions: Homo sapiens, HEK293; 24 h, luciferase readout; read-out: Fusion assay (pIC50) (converted)
From the text: The complete coding sequences of HIV-1 tat (GenBank Accession No. X07861) and rev (GenBank Accession No. M34378) were cloned into pcDNA3.1 expression vectors containing G418 and hygromycin resistance genes, respectively. The complete coding sequence of the HIV-1 (HXB2 strain) gp160 envelope gene (nucleotide bases 6225-8795 of GenBank Accession No. K03455) was cloned into plasmid pCRII-TOPO. The three HIV genes were additionally inserted into the baculovirus shuttle vector, pFastBacMam1, under the transcriptional control of the CMV promoter. A construction of the pHIV-I LTR containing mutated NFkB sequences linked to the luciferase reporter gene was prepared by digesting pcDNA3.1, containing the G418 resistance gene, with Nru I and Bam HI to remove the CMV promoter. LTR-luc was then cloned into the Nru I/Bam HI sites of the plasmid vector. Plasmid preparations were performed after the plasmids were amplified in Escherichia coli strain DH5-alpha. The fidelity of the inserted sequences was confirmed by double-strand nucleotide sequencing using an ABI Prism Model 377 automated sequencer.
BacMam Baculovirus Generation
Recombinant BacMam baculoviruses were constructed from pFastBacMam shuttle plasmids by using the bacterial cell-based Bac-to-Bac system. Viruses were propagated in Sf9 (Spodoptera frugiperda) cells cultured in Hink's TNM-FH Insect media supplemented with 10% (v/v) fetal bovine serum and 0.1% (v/v) pluronic F-68 according to established protocols.
Human osteosarcoma (HOS) cells that naturally express human CXCR4 were transfected with human CCR5, human CD4 and the pHIV-LTR-luciferase plasmid using FuGENE 6 transfection reagent. Single cells were isolated and grown under selection condition in order to generate a stable HOS (hCXCR4/hCCR5/hCD4/pHIV-LTR-luciferase) clonal cell line. The cells were maintained in Dulbeccos modified Eagles media supplemented with 10% fetal calf serum (FCS), G418 (400 ug/ml), puromycin (1 ug/ml), mycophenolic acid (40 ug/ml), xanthine (250 ug/ml) and hypoxanthine (13.5 ug/ml) to maintain a selection pressure for cells expressing the LTR-luciferase, hCCR5 and hCD4, respectively. Human embryonic kidney (HEK-293) cells stably transfected to express the human macrophage scavenging receptor (Class A, type 1; GenBank Accession No. D90187), were maintained in DMEM/F-12 media (1:1) supplemented with 10% FCS and 1.5 ug/ml puromycin. The expression of this receptor by the HEK-293 cells enhances their ability to stick to tissue culture treated plasticware.
Transduction of HEK-293 cells
HEK-293 cells were harvested using enzyme-free cell dissociation buffer. The cells were resuspended in DMEM/F-12 media supplemented with 10% FCS and 1.5 ug/ml and counted. Tranductions were performed by direct addition of BacMam baculovirus containing insect cell media to cells. The cells were simultaneously transduced with BacMam baculovirus expressing HIV-1 tat, HIV-1 rev and HIV-1 gp160 (from the HXB2 HIV strain). Routinely an MOI of 10 of each virus was added to the media containing the cells. 2 mM butyric acid was also added to the cells at this stage to increase protein expression in transduced cells. The cells were subsequently mixed and seeded into a flask at 30 million cells per T225. The cells were incubated at 37° C., 5% CO2, 95% humidity for 24 h to allow for protein expression.
Cell/Cell Fusion Assay Format
HEK and HOS cells were harvested in DMEM/F-12 media containing 2% FCS and DMEM media containing 2% FCS, respectively, with no selection agents added. Compounds were plated as 1 ul spots in 100% DMSO on a 96-well CulturPlate plates. HOS cells (50 ul) were added first to the wells, followed immediately by the HEK cells (50 ul). The final concentration of each cell type was 20,000 cells per well. Following these additions, the cells were returned to a tissue culture incubator (37° C.; 5% CO2/95% air) for an additional 24 h.
Measurement of Luciferase Production […]

[2] = Compound cytotoxicity in the absence of virus (CellTiter-Glo); assay type: cell-based; conditions: human; HOS cells, no virus; read-out: Cytotox (pIC50) (converted)
Method: (§1) Compounds were profiled against two HIV-1 viruses, the M-tropic (CCR5 utilizing) Ba-L strain and the T-tropic (CXCR4 utilizing) IIIB strain. Both viruses were propagated in human peripheral blood lymphocytes. Compounds were tested for there ability to block infection of the HOS cell line (expressing hCXCR4/hCCR5/hCD4/pHIV-LTR-luciferase) by either HIV-1 Ba-L or HIV-1 IIIB. Compound cytotoxicity was also examined in the absence of virus addition.
(§2) HOS cells (expressing hCXCR4/hCCR5/hCD4/pHIV-LTR-luciferase) were harvested and diluted in Dulbeccos modified Eagles media supplemented with 2% FCS and non-essential amino acid to a concentration of 60,000 cells/ml. The cells were plated into 96-well plates (100 ul per well) and the plates were placed in a tissue culture incubator (37° C.; 5% CO2/95% air) for a period of 24 h.
(§3) Subsequently, 50 ul of the desired drug solution (4 times the final concentration) was added to each well and the plates were returned to the tissue culture incubator (37° C.; 5% CO2/95% air) for 1 h. Following this incubation 50 ul of diluted virus was added to each well (approximately 2 million RLU per well of virus). The plates were returned to the tissue culture incubator (37° C.; 5% CO2/95% air) and were incubated for a further 96 h.
(§4) Following this incubation the endpoint for the virally infected cultures was quantified following addition of Steady-Glo Luciferase assay system reagent (Promega, Madison, Wis.). Cell viability or non-infected cultures was measured using a CellTiter-Glo luminescent cell viability assay system (Promega, Madison, Wis.). All luminescent readouts are performed on a Topcount luminescence detector (Packard, Meridien, Conn.).

HIV-1 IIIB = assay: HOS HIV-1 infectivity assay, IIIB strain; assay type: cell-based; conditions: Human immunodeficiency virus 1; HOS cells, HIV-1 IIIB (T-tropic, CXCR4 utilizing), 96 h; read-out: HOS (3B)
Method: HOS HIV-1 Infectivity Assay
as §1
HOS HIV-1 Infectivity Assay Format
as §2, §3, §4

HIV = assay: HOS HIV infectivity assay (Table 2, strain not given); assay type: cell-based; conditions: Human immunodeficiency virus 1, read-out: Activity Level
Summary of the method: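 HOS cells expressing hCXCR4/hCCR5/hCD4 and an HIV-LTR-luciferase reporter were preincubated with compound for 1 h in DMEM/2% FCS. They were then infected with HIV-1 Ba-L or IIIB (about 2 million RLU/well) for 96 h at 37° C. Infection was read by luciferase luminescence, and viability in uninfected cultures by CellTiter-Glo.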

T1 sequence (P61073 whole entry): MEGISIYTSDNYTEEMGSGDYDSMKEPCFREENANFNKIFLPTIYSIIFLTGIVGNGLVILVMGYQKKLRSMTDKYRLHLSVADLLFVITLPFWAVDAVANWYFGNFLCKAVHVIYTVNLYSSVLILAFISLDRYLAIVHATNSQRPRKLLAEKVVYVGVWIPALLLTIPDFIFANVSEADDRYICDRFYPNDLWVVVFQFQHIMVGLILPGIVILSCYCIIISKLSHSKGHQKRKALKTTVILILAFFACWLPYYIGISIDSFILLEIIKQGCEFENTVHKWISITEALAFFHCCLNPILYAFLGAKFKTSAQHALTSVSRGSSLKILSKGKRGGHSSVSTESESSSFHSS

SMILES | T-tropic HIV viral load (T-tropic HIV) | IC50 (human CXCR4) | IC50 [1] | IC50 at 96 h [2] | IC50 (HIV-1 IIIB) | IC50 (HIV)
c1cc(CN2CCCNCCNCCCNCC2)ccc1CN1CCCNCCNCCCNCC1 [AMD-3100] | significantly reduce T-tropic HIV viral load | – | – | – | – | –
CC(C)N1CCN(c2cccc3nc(CN(CC(F)(F)F)C4CCCc5cccnc54)cn23)CC1 (stereo not shown) [Example 17, N-({5-[4-(1-Methylethyl)-1-piperazinyl]imidazo[1,2-a]pyridin-2-yl}methyl)-N-(2,2,2-trifluoroethyl)-5,6,7,8-tetrahydro-8-quinolinamine] | – | 8.91 nM | 2140 nM | > 100000 nM | 300 nM | 100 to 500 nM
CN(C)Cc1ccc(-c2cccc3nc(CN(C)C4CCCc5cccnc54)cn23)cc1 (stereo not shown) [Example 18, N-[(5-{4-[(Dimethylamino)methyl]phenyl}imidazo[1,2-a]pyridin-2-yl)methyl]-N-methyl-5,6,7,8-tetrahydro-8-quinolinamine] | – | 38.9 nM | 148 nM | > 100000 nM | 65 nM | < 100 nM
CN(Cc1cn2c(-c3ccncc3)cccc2n1)C1CCCc2cccnc21 (stereo not shown) [Example 19, N-Methyl-N-{[5-(4-pyridinyl)imidazo[1,2-a]pyridin-2-yl]methyl}-5,6,7,8-tetrahydro-8-quinolinamine] | – | 20.4 nM | 3160 nM | > 100000 nM | 280 nM | 100 to 500 nM
